The source of these data is PubChem BioAssay AID1959 (Broad Institute, 2009).

A word on the EC50: it is the concentration needed to bring the measured effect to its halfway point.

Active and inactive are the calls of the source.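 The calls were made as follows: active = growth-inhibition EC50 no more than tenfold above the top tested dose; inconclusive = flat fit between 30% and 70% inhibition, or unreliable fit; inactive = EC50 more than tenfold above the top tested dose.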

The test has as its system E. coli NEB5alpha growth, BacTiter-Glo luminescence, 4 h. The test is described as follows: antibacterial activity against E. coli NEB5alpha – luminescence, counter-screen for MEX-5/POS-1 RNA-binding inhibitor project, dose response (AID 1959).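 Also: pUC19-transformed ampicillin-resistant cells grown in LB with ampicillin.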 In general terms: The purpose of a counterscreen is to sort out artefacts and off-target activity.
As to `Cc1cc[n+](C2=C([O-])c3ccccc3C(=O)/C2=N\S(=O)(=O)c2cccs2)cc1C`, the EC50 is > 11 µM (inactive).
On to `O=C(N/N=C/c1cccn1-c1cccc(C(=O)O)c1)Nc1ccccc1`, for which the EC50 was > 11 µM (inactive).
Then `N#CC(C#N)=Cc1ccc(N2CCOCC2)cc1`, with > 11 µM (inactive).
As to `CC1CCc2nn(CC(=O)NCCN3CCCCC3C)cc2C1` (configuration not stated), the EC50 was > 11 µM (inactive).
As for `COc1c(/C=C2/C(=O)NC(=O)N(C)C2=O)c(CCN(C)C(=O)c2ccccc2)cc2c1OCO2`, the EC50 is > 11 µM (inactive).
As to `NS(=O)(=O)c1ccc(Nc2nc(-c3ccc(O)cc3O)cs2)cc1`, the EC50 is > 11 µM (inactive).
The figure for `COc1ccc(-n2c(C)cc(/C=C3\SC(=S)N(Cc4ccco4)C3=O)c2C)cc1` is > 11 µM (inactive); for `COc1ccc(N=Cc2c(O)n(-c3cccc(C)n3)c(=O)c3ccccc23)c(OC)c1` it is > 11 µM (inactive).
`COC(=O)c1cc2n3ccccc3c(C)c(-c3ccccc3)c-2c1C(=O)OC`: the EC50 is > 11 µM (inactive).
For `Cc1cccc(C(=O)NCCCNC(=O)c2cccc(C)c2)c1`, the EC50 was > 11 µM (inactive).
For the compound `O=C(NNC(=O)c1cc(Cl)ccc1O)c1cccc(S(=O)(=O)N2CCOCC2)c1`, the EC50 is > 11 µM (inactive).
The figure for `O=C(O)c1ccc2c(c1)C1C=CCC1C(c1ccncc1)N2` (configuration not stated) is > 11 µM (inactive); for `COc1cccc(N2C(=O)NC(=O)/C(=C/c3ccc([N+](=O)[O-])s3)C2=O)c1` it is > 11 µM (inactive); for `COc1cc(NCCCC(C)N)c2ncccc2c1` (configuration not stated) it is > 11 µM (inactive).
For the compound `CCN(CC)c1ccc(/C=C2\C(=O)NC(=S)N(c3ccc(OC)cc3OC)C2=O)o1`, the EC50 was > 11 µM (inactive).
On to `CCN(CC)c1ccc(N=Nc2ncn[nH]2)cc1`, for which the EC50 was > 11 µM (inactive).
Regarding `Cc1n[nH]c(C)c1N1C(=O)c2cccc3c(N4CCCCCC4)ccc(c23)C1=O`, the EC50 is > 11 µM (inactive).
For the compound `CCN(CC)CCN1C(=O)c2cccc3cc(N)cc(c23)C1=O`, the EC50 is > 11 µM (inactive).
As to `N=c1c(S(=O)(=O)c2ccc(Cl)cc2)cc2c(=O)n3ccccc3nc2n1C1CCCCC1`, the EC50 was > 11 µM (inactive).
Turning to `O=C(NCC1CCCO1)c1nn2c(C(F)(F)F)cc(-c3cc(Br)cs3)nc2c1Br` (configuration not stated), the EC50 was > 11 µM (inactive).
On to `CCCCC1=CC2=CC(=O)C(C)(OC(=O)c3cccs3)C(=O)C2=CO1` (configuration not stated), for which the EC50 was > 11 µM (inactive).
With `CCCn1nc(C(=O)Nc2ccc(S(=O)(=O)Nc3nccs3)cc2)c2ccccc2c1=O`, the EC50 is > 11 µM (inactive).
In the case of `O=C(O)c1cccc(-n2cccc2/C=C2/SC(=O)N(CC(=O)N3CCCC3)C2=O)c1`, the EC50 is > 11 µM (inactive).
Take `CCCCn1c(O)c(/C=C2\C=Nc3ccccc32)c(=O)[nH]c1=O`: the EC50 was > 11 µM (inactive).
In the case of `CN(C)c1cccc2c1c(NS(=O)(=O)c1cn(C)cn1)nn2C`, the EC50 is > 11 µM (inactive).
The figure for `CCOc1ccc(-n2c(O)c(/C=C3\C=Nc4ccccc43)c(=O)[nH]c2=O)cc1` is > 11 µM (inactive); for `COC(=O)Cn1cc(C=C2C(=O)N(C)C(=O)N(C)C2=O)c2ccccc21` it is > 11 µM (inactive); for `Cc1cccc(/C=C(\C(=O)C(=O)O)c2ccc3ccccc3n2)c1` it is > 11 µM (inactive).
As for `Cc1ccc(/C=C/C(=O)c2ccc(N3CCOCC3)cc2)s1`, the EC50 is > 11 µM (inactive).
`COc1ccc(-n2c(O)c(/C=C3\C=Nc4ccc(Br)cc43)c(=O)[nH]c2=O)c(OC)c1`: the EC50 is > 11 µM (inactive).
The figure for `Cc1n[nH]c(C)c1Sc1ccccc1N=Cc1cc(Cl)cc([N+](=O)[O-])c1O` is > 11 µM (inactive).
As for `COc1ccc(C2=CC3=C(Br)C(=O)C(C)(OC(=O)C4CCCC4)C(=O)C3=CO2)cc1` (configuration not stated), the EC50 was > 11 µM (inactive).
The figure for `N=c1c(S(=O)(=O)c2ccccc2)cc2c(=O)n3ccccc3nc2n1Cc1cccnc1` is > 11 µM (inactive); for `N=c1c(C(=O)NC2CCCCC2)cc2c(=O)n3ccccc3nc2n1Cc1cccnc1` it is > 11 µM (inactive); for `CCCCC1=CC2=CC(=O)C(C)(O)C(=O)C2=CO1` (configuration not stated) it is > 11 µM (inactive).
On to `Cc1ccn2c(=O)nc(SCC(=O)Nc3cc(C)on3)nc2c1`, for which the EC50 is > 11 µM (inactive).
Then `Cc1ccc(C(=O)CSc2nc3c([nH]2)c(=O)n(C)c(=O)n3C)cc1`, with > 11 µM (inactive); and `COc1ccc(N=Cc2c(O)n(-c3cccc(C)n3)c(=O)c3ccccc23)cc1`, with > 11 µM (inactive); and `Oc1c(Cl)cc(Cl)c(Cl)c1Cc1c(O)c(Cl)cc(Cl)c1Cl`, with > 11 µM (inactive).
In the case of `COc1ccc(N=Cc2c(O)n(Cc3ccccc3)c(=S)[nH]c2=O)c(OC)c1`, the EC50 was > 11 µM (inactive).
As for `C=CCn1c(=S)[nH]c2nc3c(cc2c1=O)COC(C)(C)C3`, the EC50 was > 11 µM (inactive).
The figure for `CCOC(=O)c1c(-n2c(C)cc(/C=C3/C(=O)NC(=O)N(CC)C3=O)c2C)sc2c1CCCC2` is > 11 µM (inactive); for `Cn1c(=O)[nH]c2cc(Cl)cnc21` it is > 11 µM (inactive); for `COC(=O)CCC(=O)OC1(C)C(=O)C2=CN(CCCOC(C)C)C(c3ccc(OC)cc3)=CC2=C(Br)C1=O` (configuration not stated) it is > 11 µM (inactive).
The figure for `Cc1ccc(NC(=O)CCS(=O)(=O)c2cc3c(cc2Cl)NC(=O)CO3)cc1` is > 11 µM (inactive).
Then `CC(C)CNC(=O)c1ccc(C2SCC(=O)N2Cc2ccccc2)cc1` (configuration not stated), with > 11 µM (inactive); and `Cc1cc(C=C2C(=O)c3ccccc3C2=O)c(C)n1-c1ccc(Cl)cc1`, with > 11 µM (inactive).
Regarding `CC1(OC(=O)c2cnc3ccccc3n2)C(=O)C=C2C=C(c3ccc(C#N)cc3)OC=C2C1=O` (configuration not stated), the EC50 was > 11 µM (inactive).
The figure for `C/C(=N\Nc1ncnc2sc(C)c(C)c12)c1ccccn1` is > 11 µM (inactive); for `CCn1c(/C=C/c2ccc([N+](=O)[O-])o2)nc2ccccc2c1=O` it is > 11 µM (inactive).
Consider `N=c1c(C(=O)NCC2CCCO2)cc2c(=O)n3ccccc3nc2n1Cc1ccccc1Cl` (configuration not stated), for which the EC50 is > 11 µM (inactive).
For `Cc1cc(=O)nc2c3ccccc3n(CC(=O)Nc3ccccc3Br)n12`, the EC50 is > 11 µM (inactive).
As to `O=C1c2ccccc2C(=O)c2[nH]c(=O)[nH]c21`, the EC50 is > 11 µM (inactive).
For `CCCC(C)NC(=O)c1ccc(C2SCC(=O)N2Cc2ccco2)cc1` (configuration not stated), the EC50 was > 11 µM (inactive).
As for `Cc1ncc(CO)c(/C=N/NC(=O)c2cc(Br)ccc2O)c1O`, the EC50 was > 11 µM (inactive).
Regarding `O=C(O)CCCCCn1c(SCC(=O)c2ccc(O)c(O)c2)nc2ccsc2c1=O`, the EC50 is > 11 µM (inactive).
Take `O=C(NNC(=O)c1ccccc1[N+](=O)[O-])c1csc(N2CCOCC2)n1`: the EC50 was > 11 µM (inactive).
With `Cc1cc(/C=C2\C(=O)NC(=O)N(Cc3ccccc3)C2=O)c(C)n1C1CC1`, the EC50 is > 11 µM (inactive).
With `CC1=CC(C)(C)N2C(=O)C3(C(C#N)=C(N)OC4=C3C(=O)CC(C)(C)C4)c3cc(C)cc1c32` (configuration not stated), the EC50 was > 11 µM (inactive).
As for `O=C(NCCCN1CCOCC1)C1Nc2ccc(OC(F)(F)F)cc2C2C=CCC12` (configuration not stated), the EC50 is > 11 µM (inactive).
`COC(=O)CCC(=O)OC1(C)C(=O)C2=COC(c3ccc(OC)cc3)=CC2=C(Br)C1=O` (configuration not stated): the EC50 is > 11 µM (inactive).
`COC(=O)Cn1cc(/C=C2\C(=O)NC(=O)N(c3ccccc3)C2=O)c2ccccc21`: the EC50 is > 11 µM (inactive).
On to `CCOC(=O)c1cc(=O)n2nc(-c3ccccc3F)nc2s1`, for which the EC50 is > 11 µM (inactive).
For `Cc1ccc(NC(=S)c2ccc3ccccc3n2)c(C)c1`, the EC50 is > 11 µM (inactive).
Regarding `c1coc(-c2nc3ccccc3nc2-c2ccco2)c1`, the EC50 is > 11 µM (inactive).
Turning to `O=C(N/N=C/c1ccc(-c2ccc([N+](=O)[O-])cc2)o1)c1cccnc1`, the EC50 is > 11 µM (inactive).
Turning to `CC1CCCN(c2nc3ccccc3nc2C(C#N)S(=O)(=O)c2cccs2)C1` (configuration not stated), the EC50 was > 11 µM (inactive).
As to `COc1ccc(C(=O)NC2(C(F)(F)F)C(=O)N(Cc3ccco3)C3=C2C(=O)CC(C)(C)C3)cc1OC` (configuration not stated), the EC50 is > 11 µM (inactive).
Then `Cc1cc(C)c(S(=O)(=O)Nc2cc(SCC(=O)O)c(O)c3ccccc23)cc1C`, with > 11 µM (inactive).
`COc1cc(C(CC(=O)N2CCCC2)c2c(OC)cc(OC)c3ccc(=O)oc23)cc(OC)c1OC` (configuration not stated): the EC50 was > 11 µM (inactive).
Regarding `Cc1cc(C(=O)O)ccc1-n1c(C)cc(/C=C2\SC(=O)NC2=O)c1C`, the EC50 was > 11 µM (inactive).
As to `COc1cc(C(c2c(C(=O)O)[nH]c3ccccc23)c2c(C(=O)O)[nH]c3ccccc23)ccc1OCc1ccccc1`, the EC50 is > 11 µM (inactive).
Consider `CN(C)c1ccc(-c2nnc(-c3ccc(S(=O)(=O)C(F)F)cc3)o2)cc1`, for which the EC50 is > 11 µM (inactive).
Turning to `CCOC(=O)c1cc(C(=O)OCC)cc(-n2c(C)cc(C(=O)CN3CCOCC3)c2C)c1`, the EC50 was > 11 µM (inactive).
As to `COc1ccc(N=Cc2cc3c(cc2O)OC(N)=C(C#N)C3c2ccccc2)cc1` (configuration not stated), the EC50 was > 11 µM (inactive).
As for `COc1cc2c(cc1OC)-c1c(OC)c(OC)cc3ccnc(c13)C2=O`, the EC50 is > 11 µM (inactive).
The figure for `CCN(CC)CCN1C(=O)C(O)=C(C(=O)c2cc3cccc(OC)c3o2)C1c1ccc(F)cc1` (configuration not stated) is > 11 µM (inactive); for `CC1(OC(=O)c2ccco2)C(=O)C=C2C=C(c3ccc(C#N)cc3)OC=C2C1=O` (configuration not stated) it is > 11 µM (inactive); for `Nc1ccc2c(c1)-c1ccccc1S(=O)(=O)N2` it is > 11 µM (inactive).
As for `Oc1ccc(C2=CSC3=NCCN23)cc1O`, the EC50 was > 11 µM (inactive).
Then `O=C(O)c1ccc2c(c1)C(=O)/C(=C\c1ccco1)C2=O`, with > 11 µM (inactive); and `Cc1cc(/C=C2\C(=O)NC(=O)N(c3ccc(Br)cc3)C2=O)c(C)n1-c1cc(C(=O)O)cc(C(=O)O)c1`, with > 11 µM (inactive).
